Data on one compound can be found in ChEMBL document CHEMBL1150210, “Metabolism of the Catharanthus alkaloids: from Streptomyces griseus to monoamine oxidase B” (J Nat Prod, 1992).

The series in a line: Drug level in mouse liver mitochondria. In kind it is ADME. As to conditions: in vivo.

`CC[C@]1(O)C[C@@H]2CN(CCc3c([nH]c4ccccc34)[C@@](C(=O)OC)(c3cc4c(cc3OC)N(C)[C@H]3[C@@](O)(C(=O)OC)[C@H](OC(C)=O)[C@]5(CC)C=CCN6CC[C@]43[C@@H]65)C2)C1` [VINBLASTINE] had a Drug uptake of 18.7%.
